Measurements from patent US20030004172A1, “Fused pyrimidinone matrix metalloproteinase inhibitors” (priority 2001, published 2003).

Target: MMP-13CD (catalytic domain of collagenase-3) (Homo sapiens, UniProt P45452)
Experiment: Thiopeptolide substrate hydrolysis inhibition assay, MMP-13CD
Type: biochemical
Conditions: Table I; thiopeptolide substrate, HEPES pH 7.0, 22° C.; read-out: MMP-13CD IC50
Excerpt: Thiopeptolide substrates show virtually no decomposition or hydrolysis at or below neutral pH in the absence of a matrix metalloproteinase enzyme.

| IC50 | Structure (SMILES) |
| --- | --- |
| 0.92 µM | COc1ccc(COC(=O)c2cc3c(=O)n(Cc4ccccc4)c(=O)n(C)c3s2)cc1 [Example 166, 3-Benzyl-1-methyl-2,4-dioxo-1,2,3,4-tetrahydro-thieno[2,3-d]pyrimidine-6-carboxylic acid 4-methoxy-benzyl ester] |
| 26 µM | Cn1c(=O)n(Cc2ccccc2)c(=O)c2cc(C(=O)OC3CCOCC3)sc21 [Example 167, 3-Benzyl-1-methyl-2,4-dioxo-1,2,3,4-tetrahydro-thieno[2,3-d]pyrimidine-6-carboxylic acid tetrahydro-pyran-4-yl ester] |
| 30 µM | Cn1c(=O)n(Cc2ccccc2)c(=O)c2cc(C(=O)OCc3ccccc3C(F)(F)F)sc21 [Example 169, 3-Benzyl-1-methyl-2,4-dioxo-1,2,3,4-tetrahydro-thieno[2,3-d]pyrimidine-6-carboxylic acid 2-trifluoromethyl-benzyl ester] |
| 0.72 µM | Cn1c(=O)n(Cc2ccccc2)c(=O)c2cc(C(=O)OCCOCc3ccccc3)sc21 [Example 170, 3-Benzyl-1-methyl-2,4-dioxo-1,2,3,4-tetrahydro-thieno[2,3-d]pyrimidine-6-carboxylic acid 2-benzyloxy-ethyl ester] |
| 14 µM | Cn1c(=O)n(Cc2ccccc2)c(=O)c2cc(C(=O)OCC(Cl)(Cl)Cl)sc21 [Example 171, 3-Benzyl-1-methyl-2,4-dioxo-1,2,3,4-tetrahydro-thieno[2,3-d]pyrimidine-6-carboxylic acid 2,2,2-trichloro-ethyl ester] |
| 32 µM | Cn1c(=O)n(Cc2ccccc2)c(=O)c2cc(C(=O)OCCc3ccccc3)sc21 [Example 172, 3-Benzyl-1-methyl-2,4-dioxo-1,2,3,4-tetrahydro-thieno[2,3-d]pyrimidine-6-carboxylic acid phenethyl ester] |
| > 100 µM | CCC1(COC(=O)c2cc3c(=O)n(Cc4ccccc4)c(=O)n(C)c3s2)COC1 [Example 173, 3-Benzyl-1-methyl-2,4-dioxo-1,2,3,4-tetrahydro-thieno[2,3-d]pyrimidine-6-carboxylic acid 3-ethyl-oxetan-3-ylmethyl ester] |
| > 100 µM | Cn1c(=O)n(Cc2ccccc2)c(=O)c2cc(C(=O)OCCN3CCOCC3)sc21 [Example 174, 3-Benzyl-1-methyl-2,4-dioxo-1,2,3,4-tetrahydro-thieno[2,3-d]pyrimidine-6-carboxylic acid 2-morpholin-4-yl-ethyl ester] |
| > 100 µM | Cn1c(=O)n(Cc2ccccc2)c(=O)c2cc(C(=O)OCCN3CCCC3)sc21 [Example 175, 3-Benzyl-1-methyl-2,4-dioxo-1,2,3,4-tetrahydro-thieno[2,3-d]pyrimidine-6-carboxylic acid 2-pyrrolidin-1-yl-ethyl ester] |
| > 100 µM | CCOCCOCCOC(=O)c1cc2c(=O)n(Cc3ccccc3)c(=O)n(C)c2s1 [Example 177, 3-Benzyl-1-methyl-2,4-dioxo-1,2,3,4-tetrahydro-thieno[2,3-d]pyrimidine-6-carboxylic acid 2-(2-ethoxy-ethoxy)-ethyl ester] |
| > 100 µM | Cn1c(=O)n(Cc2ccccc2)c(=O)c2cc(C(=O)OCC3CCCCO3)sc21 (stereo not drawn) [Example 178, 3-Benzyl-1-methyl-2,4-dioxo-1,2,3,4-tetrahydro-thieno[2,3-d]pyrimidine-6-carboxylic acid tetrahydro-pyran-2-ylmethyl ester] |
| 0.25 µM | Cn1c(=O)n(Cc2ccccc2)c(=O)c2cc(C(=O)OCc3ccc([N+](=O)[O-])cc3)sc21 [Example 179, 3-Benzyl-1-methyl-2,4-dioxo-1,2,3,4-tetrahydro-thieno[2,3-d]pyrimidine-6-carboxylic acid 4-nitro-benzyl ester] |
| 30 µM | CCCCCOC(=O)c1cc2c(=O)n(Cc3ccccc3)c(=O)n(C)c2s1 [Example 180, 3-Benzyl-1-methyl-2,4-dioxo-1,2,3,4-tetrahydro-thieno[2,3-d]pyrimidine-6-carboxylic acid pentyl ester] |
| > 100 µM | Cn1c(=O)n(Cc2ccccc2)c(=O)c2cc(C(=O)OCCCc3ccccc3)sc21 [Example 181, 3-Benzyl-1-methyl-2,4-dioxo-1,2,3,4-tetrahydro-thieno[2,3-d]pyrimidine-6-carboxylic acid 3-phenyl-propyl ester] |
| 8.6 µM | Cn1c(=O)n(Cc2ccccc2)c(=O)c2cc(C(=O)OCc3cccc(Oc4ccccc4)c3)sc21 [Example 182, 3-Benzyl-1-methyl-2,4-dioxo-1,2,3,4-tetrahydro-thieno[2,3-d]pyrimidine-6-carboxylic acid 3-phenoxy-benzyl ester] |
| 30 µM | COc1cc(COC(=O)c2cc3c(=O)n(Cc4ccccc4)c(=O)n(C)c3s2)cc(OC)c1 [Example 183, 3-Benzyl-1-methyl-2,4-dioxo-1,2,3,4-tetrahydro-thieno[2,3-d]pyrimidine-6-carboxylic acid 3,5-dimethoxy-benzyl ester] |
| > 100 µM | CC(C)CCOC(=O)c1cc2c(=O)n(Cc3ccccc3)c(=O)n(C)c2s1 [Example 184, 3-Benzyl-1-methyl-2,4-dioxo-1,2,3,4-tetrahydro-thieno[2,2-d]pyrimidine-6-caboxylic acid 3-methyl-butyl ester] |
| 0.014 µM | Cn1c(=O)n(Cc2ccccc2)c(=O)c2cc(C(=O)OCc3ccc(Cl)cc3)sc21 [Example 185, 3-Benzyl-1-methyl-2,4-dioxo-1,2,3,4-tetrahydro-thieno[2,3-d]pyrimidine-6-carboxylic acid 4-chloro-benzyl ester] |
| 4.5 µM | CCN1CCCC(OC(=O)c2cc3c(=O)n(Cc4ccccc4)c(=O)n(C)c3s2)C1 (stereo not drawn) [Example 186, 3-Benzyl-1-methyl-2,4-dioxo-1.2.3.4-tetrahydro-thieno[2,3-d]pyrimidine-6-carboxylic acid 1-ethyl-piperidin-3-yl ester] |
| > 100 µM | Cn1c(=O)n(Cc2ccccc2)c(=O)c2cc(C(=O)OCc3ccc(OCc4ccccc4)cc3)sc21 [Example 187, 3-Benzyl-1-methyl-2,4-dioxo-1,2,3,4-tetrahydro-thieno[2,3-d]pyrimidine-6-carboxylic acid 4-benzyloxy-benzyl ester] |
| 19 µM | CC(C)COC(=O)c1cc2c(=O)n(Cc3ccccc3)c(=O)n(C)c2s1 [Example 188, 3-Benzyl-1-methyl-2,4-dioxo-1,2,3,4-tetrahydro-thieno[2,3-d]pyrimidine-6-carboxylic acid isobutyl ester] |
| 4.9 µM | COc1ccc(CCCOC(=O)c2cc3c(=O)n(Cc4ccccc4)c(=O)n(C)c3s2)cc1 [Example 189, 3-Benzyl-1-methyl-2,4-dioxo-1,2,3,4-tetrahydro-thieno[2,3-d]pyrimidine-6-carboxylic acid 3-(4-methoxy-phenyl)-propyl ester] |
| > 100 µM | Cn1c(=O)n(Cc2ccccc2)c(=O)c2cc(C(=O)OCc3c(F)cccc3Cl)sc21 [Example 190, 3-Benzyl-1-methyl-2,4-dioxo-1,2,3,4-tetrahydro-thieno[2,3-d]pyrimidine-6-carboxylic acid 2-chloro-6-fluoro-benzyl ester] |
| 2.3 µM | Cn1c(=O)n(Cc2ccccc2)c(=O)c2cc(C(=O)OC3CCOC3)sc21 (stereo not drawn) [Example 191, 3-Benzyl-1-methyl-2,4-dioxo-1,2,3,4-tetrahydro-thieno[2,3-d]pyrimidine-6-carboxylic acid tetrahydro-furan-3-yl ester] |
